{
  "source": "the supplement of paper PMC13380429",
  "details_in_all_cases": "72 h",
  "key": {"Caco-2 [1]": {"tested_on": "Caco-2", "experiment": "cell viability relative to DMSO; higher = less toxic"}, "Calu-3 [2]": {"tested_on": "Calu-3", "experiment": "cell viability relative to DMSO; higher = less toxic"}, "HepG2 [3]": {"tested_on": "HepG2", "experiment": "cell viability relative to DMSO; higher = less toxic"}, "U2OS [4]": {"tested_on": "U2OS", "experiment": "cell viability relative to DMSO; higher = less toxic"}, "Vero E6 [5]": {"tested_on": "Vero E6", "experiment": "cell viability relative to DMSO; higher = less toxic"}, "Caco-2 [6]": {"tested_on": "Caco-2", "experiment": "relative viability EC50 (midpoint between 100% and the lowest measured viability); higher = less toxic"}, "Calu-3 [7]": {"tested_on": "Calu-3", "experiment": "relative viability EC50 (midpoint between 100% and the lowest measured viability); higher = less toxic"}, "HepG2 [8]": {"tested_on": "HepG2", "experiment": "relative viability EC50 (midpoint between 100% and the lowest measured viability); higher = less toxic"}, "U2OS [9]": {"tested_on": "U2OS", "experiment": "relative viability EC50 (midpoint between 100% and the lowest measured viability); higher = less toxic"}, "Vero E6 [10]": {"tested_on": "Vero E6", "experiment": "relative viability EC50 (midpoint between 100% and the lowest measured viability); higher = less toxic"}, "Caco-2 [11]": {"tested_on": "Caco-2", "experiment": "drug sensitivity score (DSS) for viability; higher = more toxic; extreme values may be limits of the assay"}, "Calu-3 [12]": {"tested_on": "Calu-3", "experiment": "drug sensitivity score (DSS) for viability; higher = more toxic; extreme values may be limits of the assay"}, "HepG2 [13]": {"tested_on": "HepG2", "experiment": "drug sensitivity score (DSS) for viability; higher = more toxic; extreme values may be limits of the assay"}, "U2OS [14]": {"tested_on": "U2OS", "experiment": "drug sensitivity score (DSS) for viability; higher = more toxic; extreme values may be limits of the assay"}, "Vero E6 [15]": {"tested_on": "Vero E6", "experiment": "drug sensitivity score (DSS) for viability; higher = more toxic; extreme values may be limits of the assay"}},
  "data": [
    {"smiles": "Oc1ccc(/C=C/c2cc(O)cc(O)c2)cc1", "note": "[resveratrol]", "values": [
      {"measurement": "cell viability", "setting": "Caco-2 [1]; 1 nM", "value": 93.3, "unit": "%"},
      {"measurement": "cell viability", "setting": "Caco-2 [1]; 10 nM", "value": 91.6, "unit": "%"},
      {"measurement": "cell viability", "setting": "Caco-2 [1]; 100 nM", "value": 95.8, "unit": "%"},
      {"measurement": "cell viability", "setting": "Caco-2 [1]; 1000 nM", "value": 99.3, "unit": "%"},
      {"measurement": "cell viability", "setting": "Caco-2 [1]; 10000 nM", "value": 90.1, "unit": "%"},
      {"measurement": "cell viability", "setting": "Calu-3 [2]; 1 nM", "value": 106, "unit": "%"},
      {"measurement": "cell viability", "setting": "Calu-3 [2]; 10 nM", "value": 103, "unit": "%"},
      {"measurement": "cell viability", "setting": "Calu-3 [2]; 100 nM", "value": 94.8, "unit": "%"},
      {"measurement": "cell viability", "setting": "Calu-3 [2]; 1000 nM", "value": 93.7, "unit": "%"},
      {"measurement": "cell viability", "setting": "Calu-3 [2]; 10000 nM", "value": 87.2, "unit": "%"},
      {"measurement": "cell viability", "setting": "HepG2 [3]; 1 nM", "value": 107, "unit": "%"},
      {"measurement": "cell viability", "setting": "HepG2 [3]; 10 nM", "value": 116, "unit": "%"},
      {"measurement": "cell viability", "setting": "HepG2 [3]; 100 nM", "value": 108, "unit": "%"},
      {"measurement": "cell viability", "setting": "HepG2 [3]; 1000 nM", "value": 97.9, "unit": "%"},
      {"measurement": "cell viability", "setting": "HepG2 [3]; 10000 nM", "value": 104, "unit": "%"},
      {"measurement": "cell viability", "setting": "U2OS [4]; 1 nM", "value": 97.7, "unit": "%"},
      {"measurement": "cell viability", "setting": "U2OS [4]; 10 nM", "value": 95, "unit": "%"},
      {"measurement": "cell viability", "setting": "U2OS [4]; 100 nM", "value": 96.9, "unit": "%"},
      {"measurement": "cell viability", "setting": "U2OS [4]; 1000 nM", "value": 106, "unit": "%"},
      {"measurement": "cell viability", "setting": "U2OS [4]; 10000 nM", "value": 106, "unit": "%"},
      {"measurement": "cell viability", "setting": "Vero E6 [5]; 1 nM", "value": 97.5, "unit": "%"},
      {"measurement": "cell viability", "setting": "Vero E6 [5]; 10 nM", "value": 97.3, "unit": "%"},
      {"measurement": "cell viability", "setting": "Vero E6 [5]; 100 nM", "value": 94.9, "unit": "%"},
      {"measurement": "cell viability", "setting": "Vero E6 [5]; 1000 nM", "value": 100, "unit": "%"},
      {"measurement": "cell viability", "setting": "Vero E6 [5]; 10000 nM", "value": 98.6, "unit": "%"},
      {"measurement": "relative viability EC50", "setting": "Caco-2 [6]", "value": "> 10", "unit": "µM"},
      {"measurement": "relative viability EC50", "setting": "Calu-3 [7]", "value": "> 10", "unit": "µM"},
      {"measurement": "relative viability EC50", "setting": "HepG2 [8]", "value": "> 10", "unit": "µM"},
      {"measurement": "relative viability EC50", "setting": "U2OS [9]", "value": "> 10", "unit": "µM"},
      {"measurement": "relative viability EC50", "setting": "Vero E6 [10]", "value": "> 10", "unit": "µM"},
      {"measurement": "drug sensitivity score", "setting": "Caco-2 [11]", "value": 0},
      {"measurement": "drug sensitivity score", "setting": "Calu-3 [12]", "value": 0.1},
      {"measurement": "drug sensitivity score", "setting": "HepG2 [13]", "value": 0},
      {"measurement": "drug sensitivity score", "setting": "U2OS [14]", "value": 0},
      {"measurement": "drug sensitivity score", "setting": "Vero E6 [15]", "value": 0}
    ]},
    {"smiles": "COc1cc2c(cc1OC)-c1cc3nc4ccccc4nc3n1C(C)(C)C2", "values": [
      {"measurement": "cell viability", "setting": "Caco-2 [1]; 1 nM", "value": 97.9, "unit": "%"},
      {"measurement": "cell viability", "setting": "Caco-2 [1]; 10 nM", "value": 103, "unit": "%"},
      {"measurement": "cell viability", "setting": "Caco-2 [1]; 100 nM", "value": 106, "unit": "%"},
      {"measurement": "cell viability", "setting": "Caco-2 [1]; 1000 nM", "value": 99.1, "unit": "%"},
      {"measurement": "cell viability", "setting": "Caco-2 [1]; 10000 nM", "value": 89.1, "unit": "%"},
      {"measurement": "cell viability", "setting": "Calu-3 [2]; 1 nM", "value": 104, "unit": "%"},
      {"measurement": "cell viability", "setting": "Calu-3 [2]; 10 nM", "value": 103, "unit": "%"},
      {"measurement": "cell viability", "setting": "Calu-3 [2]; 100 nM", "value": 99.8, "unit": "%"},
      {"measurement": "cell viability", "setting": "Calu-3 [2]; 1000 nM", "value": 95.2, "unit": "%"},
      {"measurement": "cell viability", "setting": "Calu-3 [2]; 10000 nM", "value": 97.3, "unit": "%"},
      {"measurement": "cell viability", "setting": "HepG2 [3]; 1 nM", "value": 98.7, "unit": "%"},
      {"measurement": "cell viability", "setting": "HepG2 [3]; 10 nM", "value": 83.6, "unit": "%"},
      {"measurement": "cell viability", "setting": "HepG2 [3]; 100 nM", "value": 89.7, "unit": "%"},
      {"measurement": "cell viability", "setting": "HepG2 [3]; 1000 nM", "value": 95.1, "unit": "%"},
      {"measurement": "cell viability", "setting": "HepG2 [3]; 10000 nM", "value": 76.2, "unit": "%"},
      {"measurement": "cell viability", "setting": "Vero E6 [5]; 1 nM", "value": 108, "unit": "%"},
      {"measurement": "cell viability", "setting": "Vero E6 [5]; 10 nM", "value": 102, "unit": "%"},
      {"measurement": "cell viability", "setting": "Vero E6 [5]; 100 nM", "value": 104, "unit": "%"},
      {"measurement": "cell viability", "setting": "Vero E6 [5]; 1000 nM", "value": 92.2, "unit": "%"},
      {"measurement": "cell viability", "setting": "Vero E6 [5]; 10000 nM", "value": 107, "unit": "%"},
      {"measurement": "relative viability EC50", "setting": "Caco-2 [6]", "value": "> 10", "unit": "µM"},
      {"measurement": "relative viability EC50", "setting": "Calu-3 [7]", "value": "> 10", "unit": "µM"},
      {"measurement": "relative viability EC50", "setting": "HepG2 [8]", "value": "> 10", "unit": "µM"},
      {"measurement": "relative viability EC50", "setting": "Vero E6 [10]", "value": "> 10", "unit": "µM"},
      {"measurement": "drug sensitivity score", "setting": "Caco-2 [11]", "value": 0},
      {"measurement": "drug sensitivity score", "setting": "Calu-3 [12]", "value": 0},
      {"measurement": "drug sensitivity score", "setting": "HepG2 [13]", "value": 1.8},
      {"measurement": "drug sensitivity score", "setting": "Vero E6 [15]", "value": 0}
    ]},
    {"smiles": "COc1cc(C(=O)NCCCCCC(=O)O)cc(OC)c1OC", "note": "[capobenic-acid]", "values": [
      {"measurement": "cell viability", "setting": "Caco-2 [1]; 1 nM", "value": 110, "unit": "%"},
      {"measurement": "cell viability", "setting": "Caco-2 [1]; 10 nM", "value": 111, "unit": "%"},
      {"measurement": "cell viability", "setting": "Caco-2 [1]; 100 nM", "value": 96.7, "unit": "%"},
      {"measurement": "cell viability", "setting": "Caco-2 [1]; 1000 nM", "value": 80.2, "unit": "%"},
      {"measurement": "cell viability", "setting": "Caco-2 [1]; 10000 nM", "value": 93.5, "unit": "%"},
      {"measurement": "cell viability", "setting": "Calu-3 [2]; 1 nM", "value": 96.3, "unit": "%"},
      {"measurement": "cell viability", "setting": "Calu-3 [2]; 10 nM", "value": 94.9, "unit": "%"},
      {"measurement": "cell viability", "setting": "Calu-3 [2]; 100 nM", "value": 94.5, "unit": "%"},
      {"measurement": "cell viability", "setting": "Calu-3 [2]; 1000 nM", "value": 104, "unit": "%"},
      {"measurement": "cell viability", "setting": "Calu-3 [2]; 10000 nM", "value": 98.6, "unit": "%"},
      {"measurement": "cell viability", "setting": "U2OS [4]; 1 nM", "value": 97, "unit": "%"},
      {"measurement": "cell viability", "setting": "U2OS [4]; 10 nM", "value": 103, "unit": "%"},
      {"measurement": "cell viability", "setting": "U2OS [4]; 100 nM", "value": 94.7, "unit": "%"},
      {"measurement": "cell viability", "setting": "U2OS [4]; 1000 nM", "value": 111, "unit": "%"},
      {"measurement": "cell viability", "setting": "U2OS [4]; 10000 nM", "value": 94, "unit": "%"},
      {"measurement": "cell viability", "setting": "Vero E6 [5]; 1 nM", "value": 103, "unit": "%"},
      {"measurement": "cell viability", "setting": "Vero E6 [5]; 10 nM", "value": 101, "unit": "%"},
      {"measurement": "cell viability", "setting": "Vero E6 [5]; 100 nM", "value": 99, "unit": "%"},
      {"measurement": "cell viability", "setting": "Vero E6 [5]; 1000 nM", "value": 101, "unit": "%"},
      {"measurement": "cell viability", "setting": "Vero E6 [5]; 10000 nM", "value": 94.6, "unit": "%"},
      {"measurement": "relative viability EC50", "setting": "Caco-2 [6]", "value": "> 10", "unit": "µM"},
      {"measurement": "relative viability EC50", "setting": "Calu-3 [7]", "value": "> 10", "unit": "µM"},
      {"measurement": "relative viability EC50", "setting": "U2OS [9]", "value": "> 10", "unit": "µM"},
      {"measurement": "relative viability EC50", "setting": "Vero E6 [10]", "value": "> 10", "unit": "µM"},
      {"measurement": "drug sensitivity score", "setting": "Caco-2 [11]", "value": 3.1},
      {"measurement": "drug sensitivity score", "setting": "Calu-3 [12]", "value": 0},
      {"measurement": "drug sensitivity score", "setting": "U2OS [14]", "value": 0},
      {"measurement": "drug sensitivity score", "setting": "Vero E6 [15]", "value": 0}
    ]}
  ]
}
